Consider 37 compounds from US8653075B2, “Therapeutic methods employing substituted piperidines which are CCR3 antagonists” (Boehringer Ingelheim International GmbH, priority 2009, dated 2014).

Structures are written as SMILES. pKi: −log10 of the molar value.

The target of the experiment is T1, human chemokine receptor CCR3 (Homo sapiens, UniProt P51677).
T1 construct: expressed in transfected cells; host or cells: K562 cell line (hCCR3-C1 cells), membrane preparation
T1 sequence (P51677 1-355): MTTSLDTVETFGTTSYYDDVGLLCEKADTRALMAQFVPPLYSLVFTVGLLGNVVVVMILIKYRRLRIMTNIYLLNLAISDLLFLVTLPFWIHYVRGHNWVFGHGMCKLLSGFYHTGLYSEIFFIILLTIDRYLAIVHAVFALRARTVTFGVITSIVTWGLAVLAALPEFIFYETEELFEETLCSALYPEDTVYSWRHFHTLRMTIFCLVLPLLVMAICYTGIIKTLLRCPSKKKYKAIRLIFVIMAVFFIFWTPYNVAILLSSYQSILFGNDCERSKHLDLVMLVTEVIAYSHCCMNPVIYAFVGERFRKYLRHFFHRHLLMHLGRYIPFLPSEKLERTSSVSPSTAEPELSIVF
Kind of experiment: CCR3 receptor binding assay (SPA, 125I-eotaxin-1 displacement, hCCR3-C1 K562 cell membranes). The settings on record: human Eotaxin-1 at human CCR3-Rezeptor; for inhibition at 1 µM: read-out: CCR3 % inh @ 1 μM; for pKi: dose range 0.1 to 10000 nM. The procedure: The CCR3 receptor binding test is based on a K562 cell line (leukemia myelogenic blast cells) transfected with the human chemokine receptor CCR3 (hCCR3-C1 cells). The cell membranes were prepared by disrupting the hCCR3-C1 cells by […]. The preparation was centrifuged at 400 g 4° C. for 30 min. The supernatant was transferred into fresh tubes followed by a second centrifugation at 48000 g, 4° C. for 1 h. The membranes were re-suspended in the SPA incubation buffer (25 mM HEPES, 25 mM MgCl2 6×H2O, 1 mM CaCl2 2×H2O) without bovine serum albumin and homogenized by passing through a single use needle (Terumo, 23Gx1″). The membranes were stored in aliquots at −80° C.
The CCR3 receptor binding assay was performed in a Scintillation Proximity Assay (SPA) design with the radioligand recombinant human ^125Iodine-eotaxin-1. Cell membranes of hCCR3 C1 cells were again homogenized by passing through a single use needle (Terumo, 23Gx1″) and diluted in SPA incubation buffer in suitable concentrations (0.5-10 μg protein/well) in 96 well microtiter plates (1450-514, Perkin Elmer). The SPA assay was set up in the SPA incubation buffer with a final volume of 200 μl and final concentration of 25 mM HEPES, 25 mM MgCl2 6×H2O, 1 mM CaCl2 2×H2O and 0.1% bovine serum albumin. The SPA assay mixture contained 60 μl of the membrane suspension, 80 μl of Wheat Germ Agglutinin coated PVT beads (organic scintillator, GE Healthcare, RPNQ-0001) 0.2 mg/well), 40 μl of recombinant human ^125Jodine-eotaxin-1 (Biotrend), diluted in SPA buffer to a final concentration of 30.000 dpm per well, and 20 μl of the test compound (dissolved in DMSO dilutions). The SPA assay mixture was incubated for 2 h at room temperature. Bound radioactivity was determined with a scintillation counter (Micro Beta “Trilux”, Wallac). Included were controls for total binding (no displacer added, Bo) and non-specific binding (NSB) by adding unlabelled recombinant human Eotaxin-1 (Biotrend, Cat #300-21) or a reference compound.
Determination of the affinity of a test compound was calculated by subtraction of the non-specific binding (NSB) from the total binding (Bo) or the binding in the presence of the test compound (B) at a given compound concentration. […] The Bo-NSB value was set to 0% inhibition.
% inhibition and Ki values are (human Eotaxin-1 at human CCR3-Rezeptor): […]

Consider `Cc1cc(CN2CCC(N3C(=O)CC[C@@H]3C(=O)Nc3cc(-n4cccn4)ccn3)CC2)ccc1Cl` [Example 101], for which the pKi is 7.35. Besides, the inhibition at 1 µM (1 μM test compound) was 95%.
Regarding `Cc1cc(CN2CCC(N3C(=O)CC[C@H]3C(=O)NCc3ccnn3C)CC2)ccc1Cl` [Example 69], the “CCR3 % inh @ 1 μM” value (1 μM test compound, 1 µM) came to 55%.
`Cc1cc(-c2nc[nH]n2)cc(NC(=O)[C@H]2CCC(=O)N2C2CCN(Cc3ccc(Cl)c(C)c3)CC2)n1` [Example 210]: the pKi is 7.89.
The compound `Cc1cc(CN2CCC(N3C(=O)CC[C@@H]3C(=O)Nc3cccc(C(=O)NC[C@@H]4CCCO4)c3)CC2)ccc1Cl` [Example 162] gave a pKi of 7.70. For the same compound, the inhibition at 1 µM (1 μM test compound) was 97%.
Turning to `CNC(=O)c1cc(C)cc(NC(=O)[C@H]2CCC(=O)N2C2CCN(Cc3ccc(Cl)c(C)c3)CC2)c1` [Example 142], the pKi was 7.77. In addition, the inhibition at 1 µM (1 μM test compound) was 100%.
For `CNC(=O)c1cc(NC(=O)[C@H]2CCC(=O)N2C2CCN(Cc3ccc(Cl)c(C)c3)CC2)cc(C(F)(F)F)c1` [Example 2], in that order: 8.40 and 98%.
Consider `CCC(C)NC(=O)c1cccc(NC(=O)[C@H]2CCC(=O)N2C2CCN(Cc3ccc(Cl)c(C)c3)CC2)c1` (stereo partly drawn) [Example 143], for which the pKi is 8.15. Further, the inhibition at 1 µM (1 μM test compound) was determined as 99%.
In the same order, the values of `CNC(=O)c1cc(Cl)cc(NC(=O)[C@H]2CCC(=O)N2C2CCN(Cc3ccc(Cl)c(C)c3)CC2)c1` [Example 169] are 7.72 and 99%.
In the same order, the values of `Cc1cc(CN2CCC(N3C(=O)CC[C@@H]3C(=O)Nc3cccc(-c4ccn(C)n4)c3)CC2)ccc1Cl` [Example 9] are 7.92 and 95%.
For the compound `COc1cc(NC(=O)[C@H]2CCC(=O)N2C2CCN(Cc3ccc(Cl)c(C)c3)CC2)cc(C(=O)N(C)C)c1` [Example 173], the pKi was 7.89. Further, the inhibition at 1 µM (1 μM test compound) turned out to be 99%.
In the same order, the values of `Cc1cc(CN2CCC(N3C(=O)CC[C@@H]3C(=O)Nc3cc(C(=O)N(C)C)cc(C4CC4)n3)CC2)ccc1Cl` [Example 214] are 8.70 and 101%.
For `Cc1cc(CN2CCC(N3C(=O)CC[C@@H]3C(=O)Nc3cccc(C(=O)N4CCCCC4CO)c3)CC2)ccc1Cl` (stereo partly drawn) [Example 153], in that order: 7.92 and 99%.
On to `Cc1cc(CN2CCC(N3C(=O)CC[C@H]3C(=O)NC3CCC(F)(F)CC3)CC2)ccc1Cl` [Example 48], for which the pKi was 6.02. Besides, the inhibition at 1 µM (1 μM test compound) came to 40%.
In the same order, the values of `Cc1cc(CN2CCC(N3C(=O)CC[C@H]3C(=O)N3CCc4cccc(C(F)(F)F)c4C3)CC2)ccc1Cl` [Example 56] are 6.60 and 76%.
In turn, `Cc1cc(CN2CCC(N3C(=O)CC[C@@H]3C(=O)Nc3cccc(C(=O)N(C)C)c3)CC2)ccc1Cl` [Example 141] gave a pKi of 8.22. For the same compound, the inhibition at 1 µM (1 μM test compound) stood at 94%.
In turn, `Cc1cc(CN2CCC(N3C(=O)CC[C@@H]3C(=O)Nc3cccc(-c4nc[nH]n4)c3)CC2)ccc1Cl` [Example 16] had a pKi of 7.70. Moreover, the inhibition at 1 µM (1 μM test compound) came to 98%.
Regarding `Cc1cc(NC(=O)[C@H]2CCC(=O)N2C2CCN(Cc3ccc(Cl)c(C)c3)CC2)cc(C(=O)N(C)CCO)c1` [Example 175], the pKi was 8.22. For the same compound, the inhibition at 1 µM (1 μM test compound) was 99%.
For the compound `Cc1cc(CN2CCC(N3C(=O)CC[C@@H]3C(=O)N3CCCc4ccccc43)CC2)ccc1Cl` [Example 15], the pKi is 5.95. In addition, the inhibition at 1 µM (1 μM test compound) was 38%.
On to `Cc1cc(CN2CCC(N3C(=O)N(C)C[C@@H]3C(=O)Nc3cccc(-c4ccncc4)c3)CC2)ccc1Cl` [Example 120], for which the pKi is 7.46. Further, where the note is “1 μM test compound”, the inhibition at 1 µM is 95%.
Turning to `Cc1cc(CN2CCC(N3C(=O)CC[C@@H]3C(=O)Nc3cc(F)cc(C(=O)N(C)C)c3)CC2)ccc1Cl` [Example 176], the pKi was 7.96. For the same compound, the inhibition at 1 µM (1 μM test compound) was found to be 100%.
For `Cc1cc(CN2CCC(N3C(=O)CC[C@@H]3C(=O)N3CCc4c(cccc4C(F)(F)F)C3)CC2)ccc1Cl` [Example 65], in that order: 6.22 and 57%.
In the same order, the values of `Cc1cc(CN2CCC(N3C(=O)CC[C@@H]3C(=O)Nc3cccc(C(=O)NCC4CCCCO4)c3)CC2)ccc1Cl` (stereo partly drawn) [Example 161] are 7.70 and 97%.
In turn, `Cc1cc(C(=O)N(C)C)cc(NC(=O)[C@H]2CCC(=O)N2C2CCN(Cc3ccc(Cl)c(Cl)c3)CC2)n1` [Example 115] gave a pKi of 7.74. Besides, the inhibition at 1 µM (1 μM test compound) is 80%.
The compound `Cc1cc(CN2CCC(N3C(=O)CC[C@@H]3C(=O)Nc3cccc(C(=O)NCC4CC4)c3)CC2)ccc1Cl` [Example 136] had a pKi of 8.40. Also, the inhibition at 1 µM (1 μM test compound) came out at 100%.
In the same order, the values of `CNC(=O)c1cc(NC(=O)[C@H]2CCC(=O)N2C2CCN(Cc3ccc(Cl)c(C)c3)CC2)cc(C(=O)NC)c1` [Example 7] are 8.15 and 97%.
Consider `Cc1cc(CN2CCC(N3C(=O)CC[C@H]3C(=O)N3CCc4ccc(F)cc4C3)CC2)ccc1Cl` [Example 73], for which the pKi is 6.04. For the same compound, the inhibition at 1 µM (1 μM test compound) was determined as 48%.
`Cc1cc(CN2CCC(N3C(=O)CC[C@@H]3C(=O)Nc3cc(C(=O)N4CCCC4)ccn3)CC2)ccc1Cl` [Example 139] had a pKi of 8.30. Besides, the inhibition at 1 µM (1 μM test compound) was 101%.
In the same order, the values of `Cc1cc(C)n(-c2ccnc(NC(=O)[C@H]3CCC(=O)N3C3CCN(Cc4ccc(Cl)c(C)c4)CC3)c2)n1` [Example 102] are 7.72 and 100%.
As for `Cc1cc(CN2CCC(N3C(=O)CC[C@@H]3C(=O)Nc3cccc(C(=O)N(C)Cc4ccco4)c3)CC2)ccc1Cl` [Example 149], the pKi was 8.00. Besides, the inhibition at 1 µM (1 μM test compound) was found to be 99%.
In the same order, the values of `Cc1cc(CN2C3CCC2CC(N2C(=O)CC[C@@H]2C(=O)Nc2cccc(-c4nnnn4C)c2)C3)ccc1Cl` (stereo partly drawn) [Example 77] are 7.42 and 96%.
Compound `Cc1cc(CN2CCC(N3C(=O)CC[C@@H]3C(=O)Nc3cccc(-c4nnn(C)n4)c3)CC2)ccc1Cl` [Example 5] gave a pKi of 8.22. In addition, the inhibition at 1 µM (1 μM test compound) came to 98%.
Regarding `Cc1cccc(NC(=O)[C@@H]2CCC(=O)N2C2CCN(Cc3ccc(Cl)c(C)c3)CC2)n1` [Example 40], the pKi was 6.64. In addition, for the setting “1 μM test compound”, the inhibition at 1 µM was found to be 75%.
In the same order, the values of `Cc1cc(CN2CCC(N3C(=O)CC[C@@H]3C(=O)Nc3cccc(N4CCN(C)C4=O)c3)CC2)ccc1Cl` [Example 18] are 8.15 and 96%.
For `CNC(=O)c1cc(NC(=O)[C@H]2CCC(=O)N2C2CCN(Cc3ccc(Cl)c(C)c3)CC2)cc(C(=O)N(C)C)c1` [Example 106], in that order: 8.52 and 100%.
`CCOC(=O)c1cc(NC(=O)[C@H]2CCC(=O)N2C2CCN(Cc3ccc(Cl)c(C)c3)CC2)nn1C` [Example 95] had a pKi of 7.40. In addition, the inhibition at 1 µM (1 μM test compound) amounted to 94%.
For `CN1C[C@H](C(=O)Nc2cc(C3CC3)nn2C)N(C2CCN(Cc3ccc(Cl)c(Cl)c3)CC2)C1=O` [Example 198], in that order: 7.17 and 91%.
For `Cc1cc(CN2CCC(N3C(=O)OC[C@H]3C(=O)Nc3cc(C4CC4)nn3C)CC2)ccc1Cl` [Example 117], the negative-log Ki (pKi) is 7.77. In addition, the inhibition at 1 µM (1 μM test compound) amounted to 98%.
